In brackets after ≈: the same amount, converted by molar mass.
Key:
Assay type in all cases: functional
Human alphaherpesvirus 1 = test: Compound was tested for antiherpes activity against Herpes simplex virus-1(KOS) in E6SM cell cultures
Cytomegalovirus = test: Compound was tested for antiherpes activity against Cytomegalovirus virus(AD 169) in HEL cells; conditions: Human betaherpesvirus 5
Human alphaherpesvirus 3 = test: Compound was tested for antiherpes activity against Varicella zoster virus(OKA) in HEL cells
Human alphaherpesvirus 2 = test: Compound was tested for antiherpes activity against Herpes simplex virus-2(G) in E6SM cell cultures

Compound	MIC (Human alphaherpesvirus 1)	MIC (Cytomegalovirus)	MIC (Human alphaherpesvirus 3)	MIC (Human alphaherpesvirus 2)
O=c1[nH]c(=O)n(C2COC(CO)C(O)C2O)cc1I (stereo not drawn)	7 µg/mL (≈ 18.2 µM)	> 50 µg/mL	> 50 µg/mL	70 µg/mL (≈ 182 µM)
Nc1ccn(C2COC(CO)C(O)C2O)c(=O)n1 (stereo not drawn)	70 µg/mL (≈ 272 µM)	10 µg/mL (≈ 38.9 µM)	10 µg/mL (≈ 38.9 µM)	70 µg/mL (≈ 272 µM)
O=c1ccn(C2COC(CO)C(O)C2O)c(=O)[nH]1 (stereo not drawn)	150 µg/mL (≈ 581 µM)	> 50 µg/mL	> 50 µg/mL	> 200 µg/mL
Nc1nc2c(ncn2COCCO)c(=O)[nH]1 [ACYCLOVIR]	0.004 µg/mL (≈ 0.0178 µM)	–	0.5 µg/mL (≈ 2.22 µM)	0.004 µg/mL (≈ 0.0178 µM)
Nc1nc2c(ncn2COC(CO)CO)c(=O)[nH]1 [GANCICLOVIR]	0.0007 µg/mL (≈ 0.00274 µM)	1 µg/mL (≈ 3.92 µM)	–	0.002 µg/mL (≈ 0.00784 µM)

— ChEMBL document CHEMBL1129103, “Synthesis and antiviral activity of 2-deoxy-1,5-anhydro-D-mannitol nucleosides containing a pyrimidine base moiety” (1996)
